Results from patent publication US20240216392A1, “METHODS OF TREAMENT” (Arena Pharmaceuticals, Inc., priority 2022, published 2024).
Read-outs that look alike come from different tables or passages of the source.

How the values were obtained:
[1] = Phase 1 multiple-dose study, plasma PK; type: in vivo, human; conditions: both sexes, human, plasma, oral; for Tmax: read-out: Plasma Tmax, median (minimum, maximum); for AUC: read-out: Plasma AUCtau, geometric mean (geometric CV %); for Cmax: read-out: Plasma Cmax, geometric mean (geometric CV %); for AUC(0-inf): read-out: plasma geometric mean AUC0-inf
Method: Subjects were enrolled to 1 of 2 dosage regimens. Subject enrollment was stratified by sex to ensure approximate sex balance in each cohort.
(§1) Morning doses were administered following a standard light breakfast (e.g., milk and cereal, toast, and fruit) on all days. TID dosing (three times a day) was approximately 8 hours apart. Subjects fasted from midnight onwards, until the morning breakfast each day. There was no fluid restriction during the study, but subjects should not have consumed excessive amounts of fluid on any day.
The Phase 1, open-label, multiple-dose study of Example 1 was conducted for Cohorts 1-3, 4A, and 4B.
as §1, with “hours apart, and BID dosing (two times a day) was 12 hours” for “hours”, “were” for “should”, “to consume” for “have consumed”

[2] = tested on: plasma protein; experiment: clinical; conditions: human, oral
[3] = safety and tolerability, Phase 1 study; type: in vivo, human
Method: (§2) For Cohorts 1 and 2, the study consisted of a Screening period (Day −28 to −2), an on-site period from Day −1 to Day 16 and a 10-day postdosing follow-up visit (Day 25). Subjects were admitted to the clinic on Day −1 of the assessment period and remained confined to the clinic until completion of the assessment period (or longer if the Investigator deemed it is clinically indicated for safety follow-up). Safety was assessed continuously from signing of informed consent form through follow up visit. Safety assessments including cardiac troponins, vital signs, 12-lead ECGs (electrocardiograms) were performed at screening and daily from Day −1 to Day 16, and follow-up. C-SSRS (Columbia-suicide severity rating scale) was assessed at screening, Days −1, 11, 16, and 25.
as §2, with “all cohorts,” for “Cohorts 1 and 2,”, “Safety assessments including cardiac troponins, vital signs, 12-lead ECGs (electrocardiograms) were performed at screening and daily from Day −1 to Day 16, and follow-up.” left out

[4] = 12 mg, Day 8, Cohort 3 (12 mg BID)
[5] = 12 mg, Day 9, Cohort 2 (12 mg TID)
[6] = 12 mg, Day 9, Cohort 3 (12 mg BID)
[7] = 12 mg, Day 10, Cohort 2 (12 mg TID)
[8] = 12 mg, Day 10, Cohort 3 (12 mg BID)
[9] = 15 mg, Day 8, Cohort 4A (15 mg BID)
[10] = 15 mg, Day 9, Cohort 4A (15 mg BID)
[11] = 15 mg, Day 10, Cohort 4A (15 mg BID)
[12] = 18 mg, Day 8, Cohort 4B (18 mg BID)
[13] = 18 mg, Day 9, Cohort 4B (18 mg BID)
[14] = 18 mg, Day 10, Cohort 4B (18 mg BID)

C[C@H]1CN2CCNCc3ccc(C(=O)NCC(F)F)c1c32 [Compound 1, (R)—N-(2,2-difluoroethyl)-7-methyl-1,2,3,4,6,7-hexahydro-[1,4]diazepino[6,7,1-hi]indole-8-carboxamide]
Tmax ([1]; 12 mg, Day 8, Cohort 2 (12 mg TID)): 1.01 h | AUC [1, 4]: 156 ng·h/mL | Cmax [1, 4]: 30.3 ng/mL | half-life ([1]; 12 mg, Day 8, Cohort 3 (12 mg BID), read-out: Plasma T1/2, mean (SD) (converted)): 4.32 h | Tmax [1, 4]: 1.01 h | AUC [1, 5]: 194 ng·h/mL | Cmax [1, 5]: 44.5 ng/mL | half-life ([1]; 12 mg, Day 9, Cohort 2 (12 mg TID), read-out: Plasma T1/2, mean (SD) (converted)): 4.79 h | Tmax [1, 5]: 0.92 h | AUC [1, 6]: 163 ng·h/mL | Cmax [1, 6]: 37.2 ng/mL | half-life ([1]; 12 mg, Day 9, Cohort 3 (12 mg BID), read-out: Plasma T1/2, mean (SD) (converted)): 4.58 h | Tmax [1, 6]: 0.93 h | AUC [1, 7]: 196 ng·h/mL | Cmax [1, 7]: 39.8 ng/mL | half-life ([1]; 12 mg, Day 10, Cohort 2 (12 mg TID), read-out: Plasma T1/2, mean (SD) (converted)): 4.08 h | Tmax [1, 7]: 1.02 h | AUC [1, 8]: 154 ng·h/mL | Cmax [1, 8]: 31.3 ng/mL | half-life ([1]; 12 mg, Day 10, Cohort 3 (12 mg BID), read-out: Plasma T1/2, mean (SD) (converted)): 3.54 h | Tmax [1, 8]: 1 h | AUC [1, 9]: 194 ng·h/mL | Cmax [1, 9]: 44.8 ng/mL | half-life ([1]; 15 mg, Day 8, Cohort 4A (15 mg BID), read-out: Plasma T1/2, mean (SD) (converted)): 5.36 h | Tmax [1, 9]: 0.55 h | AUC [1, 10]: 208 ng·h/mL | Cmax [1, 10]: 50.2 ng/mL | half-life ([1]; 15 mg, Day 9, Cohort 4A (15 mg BID), read-out: Plasma T1/2, mean (SD) (converted)): 5.51 h | Tmax [1, 10]: 0.57 h | AUC [1, 11]: 193 ng·h/mL | Cmax [1, 11]: 40.9 ng/mL | half-life ([1]; 15 mg, Day 10, Cohort 4A (15 mg BID), read-out: Plasma T1/2, mean (SD) (converted)): 3.72 h | Tmax [1, 11]: 1.06 h | AUC [1, 12]: 230 ng·h/mL | Cmax [1, 12]: 43.2 ng/mL | half-life ([1]; 18 mg, Day 8, Cohort 4B (18 mg BID), read-out: Plasma T1/2, mean (SD) (converted)): 5.51 h | Tmax [1, 12]: 0.99 h | AUC [1, 13]: 242 ng·h/mL | Cmax [1, 13]: 47.7 ng/mL | half-life ([1]; 18 mg, Day 9, Cohort 4B (18 mg BID), read-out: Plasma T1/2, mean (SD) (converted)): 4.3 h | Tmax [1, 13]: 0.5 h | AUC [1, 14]: 224 ng·h/mL | Cmax [1, 14]: 53 ng/mL | half-life ([1]; 18 mg, Day 10, Cohort 4B (18 mg BID), read-out: Plasma T1/2, mean (SD) (converted)): 3.51 h | Tmax [1, 14]: 1 h | half-life ([1]; steady state, read-out: half-life at steady state (converted)): ~5 h | AUC(0-inf) ([1]; Day 1, single 3 mg dose, Cohort 1): 21.3 ng·h/mL | AUC(0-inf) ([1]; Day 1, single 6 mg dose, Cohorts 2, 3, 4A, 4B): 36.5 to 51.9 ng·h/mL | fraction unbound at 11 day ([2]; 6 mg, Day 11, Cohort 1 (6 mg TID)): 0.969 | fraction unbound at 11 day ([2]; 12 mg, Day 11, Cohort 2 (12 mg TID)): 0.968 | fraction unbound at 11 day ([2]; 12 mg, Day 11, Cohort 3 (12 mg BID)): 0.93 | fraction unbound at 11 day ([2]; 15 mg, Day 11, Cohort 4A (15 mg BID)): 0.913 | fraction unbound at 11 day ([2]; 18 mg, Day 11, Cohort 4B (18 mg BID)): 0.926 | safety and tolerability ([3]; Cohorts 1 and 2): Favorable safety and tolerability results | safety and tolerability ([3]; all cohorts): Favorable safety and tolerability results
